The target in this test is T1, IR84a (Drosophila melanogaster, UniProt Q9VIA5).
T1 sequence (Q9VIA5 25-644): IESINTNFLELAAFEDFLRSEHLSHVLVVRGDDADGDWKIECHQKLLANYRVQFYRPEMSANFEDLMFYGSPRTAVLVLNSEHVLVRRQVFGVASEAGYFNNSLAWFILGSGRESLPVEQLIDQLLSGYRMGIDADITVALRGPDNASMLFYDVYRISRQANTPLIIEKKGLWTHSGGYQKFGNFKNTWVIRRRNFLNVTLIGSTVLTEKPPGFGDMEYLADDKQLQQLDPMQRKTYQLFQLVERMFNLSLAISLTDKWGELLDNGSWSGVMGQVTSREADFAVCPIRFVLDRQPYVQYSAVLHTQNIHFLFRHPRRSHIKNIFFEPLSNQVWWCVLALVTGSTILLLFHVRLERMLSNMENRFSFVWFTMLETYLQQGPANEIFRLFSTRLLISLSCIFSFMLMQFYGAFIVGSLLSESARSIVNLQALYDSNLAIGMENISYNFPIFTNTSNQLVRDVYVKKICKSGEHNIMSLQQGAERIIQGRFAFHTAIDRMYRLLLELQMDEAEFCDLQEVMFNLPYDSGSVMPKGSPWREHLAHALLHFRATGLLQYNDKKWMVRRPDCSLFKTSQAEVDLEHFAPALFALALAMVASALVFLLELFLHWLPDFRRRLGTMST
T1 sequence (Q9W365 18-936 partner): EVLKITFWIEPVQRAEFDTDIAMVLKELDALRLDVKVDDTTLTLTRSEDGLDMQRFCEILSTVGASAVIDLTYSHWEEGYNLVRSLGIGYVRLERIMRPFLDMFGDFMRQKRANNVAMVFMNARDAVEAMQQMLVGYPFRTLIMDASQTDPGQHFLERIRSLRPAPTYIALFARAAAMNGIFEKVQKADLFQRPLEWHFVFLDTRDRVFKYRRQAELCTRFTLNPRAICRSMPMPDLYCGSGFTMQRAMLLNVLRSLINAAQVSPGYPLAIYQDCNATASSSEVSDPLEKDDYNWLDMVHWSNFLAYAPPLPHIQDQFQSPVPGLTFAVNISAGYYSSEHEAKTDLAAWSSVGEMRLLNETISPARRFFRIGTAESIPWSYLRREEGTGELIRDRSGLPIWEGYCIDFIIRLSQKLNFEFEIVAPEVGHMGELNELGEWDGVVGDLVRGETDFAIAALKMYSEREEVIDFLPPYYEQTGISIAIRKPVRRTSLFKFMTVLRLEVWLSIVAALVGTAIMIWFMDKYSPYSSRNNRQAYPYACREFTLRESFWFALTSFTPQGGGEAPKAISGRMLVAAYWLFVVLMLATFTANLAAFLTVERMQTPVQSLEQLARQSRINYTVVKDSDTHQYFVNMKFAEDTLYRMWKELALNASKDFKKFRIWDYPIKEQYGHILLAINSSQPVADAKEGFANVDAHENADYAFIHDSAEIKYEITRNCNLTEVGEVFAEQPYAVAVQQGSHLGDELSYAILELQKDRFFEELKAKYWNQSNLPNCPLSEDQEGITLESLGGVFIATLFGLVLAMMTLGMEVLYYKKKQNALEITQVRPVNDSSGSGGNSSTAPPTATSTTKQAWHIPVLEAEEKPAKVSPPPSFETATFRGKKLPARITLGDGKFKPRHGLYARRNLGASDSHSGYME
Type of test: cell-based.

SMILES strings stand for the structures.

Drawing on article PMC3050028 (Neuron, 2011), this text covers IC50 for 1 compound.

`CC12CC3CC(C)(C1)CC(N)(C3)C2` [memantine] came in with an IC50 of 39 ± 9 µM.

The term IC50 denotes the midpoint of a concentration-inhibition curve.
